Test results from PMC9505538, “P-Glycoprotein (MDR1/ABCB1) Restricts Brain Accumulation of the Novel EGFR Inhibitor EAI045 and Oral Elacridar Coadministration Enhances Its Brain Accumulation and Oral Exposure” (Pharmaceuticals, 2022).

Settings: mouse, in vivo
Protocol: We subsequently analyzed the single and combined effects of Abcb1 and Abcg2 deficiencies on EAI045 plasma pharmacokinetics and tissue accumulation using male WT, Abcg2^-/-, Abcb1a/1b^-/-, and Abcb1a/1b;Abcg2^-/- mice. As we wanted to assess tissue concentrations while plasma concentrations were still relatively high; we terminated this experiment at 30 min.
Mice (Mus musculus) were bred in the Netherlands Cancer Institute and housed and handled according to institutional guidelines complying with Dutch and EU legislation. Animals used were WT, Abcb1a/1b^-/- [39], Abcg2^-/- [40], Abcb1a/1b;Abcg2^-/- [41], Cyp3a^-/- [42], and Oatp1a/1b^-/- [43] mice of a >99% FVB/N strain background. Homozygous CYP3A4 humanized transgenic mice (Cyp3aXAV) were generated by cross-breeding of transgenic mice with stable human CYP3A4 expression in the liver or intestine, respectively, in a Cyp3a^-/- background. Proper functionality of the knockout and transgenic strains was monitored by regular testing with a variety of drug substrates. All the mice used were between 10 and 15 weeks of age. Animals were kept in a temperature-controlled environment with a 12 h light/12 h dark cycle and received a standard diet (Transbreed, SDS Diets, Technilab-BMI, The Netherlands) and acidified water ad libitum. Depending on the type of experiment, 5 or 6 mice were tested in each experimental group. All experimental animal protocols, including power calculations, were ethically assessed and designed under the nationally approved DEC/CCD project AVD301002016595 (approval date, 10 August 2016) and evaluated and approved by the institutional animal care and use committee (IACUC) of the Netherlands Cancer Institute.
EAI045 was dissolved in dimethyl sulfoxide (DMSO) at a concentration of […], and then diluted with a mixture of polysorbate 80/ethanol (1:1, v/v), and further diluted with 5% (w/v) glucose in water to yield a concentration of 2 mg/mL. Final concentrations for DMSO, polysorbate 80, ethanol, and glucose in the dosing solution were 5%, 2.5%, 2.5%, and 4.5% (v/v/v/w), respectively. Elacridar hydrochloride was dissolved in DMSO at a concentration of 53 mg/mL, then diluted with a mixture of polysorbate 80, ethanol, and water [20:13:67, (v/v/v)] to yield a concentration of 5 mg/mL elacridar. The final oral dose of elacridar was 50 mg/kg body weight. All dosing solutions were prepared freshly on the day of experiment.
To minimize variation in absorption, mice were fasted for about 3 h before EAI045 was administered by gavage into the stomach (n = 5–6), using a blunt-ended needle. EAI045 was administered orally at dose of 20 mg/kg. Elacridar was administered orally at a dose of 50 mg/kg, 3 h prior to oral EAI045 administration. For the 24- or 4-h experiments, tail vein blood samplings were performed at 5 min, 30 min, 1, 2, 4, and 8 h, or 5 min, 15 min, 30 min, 1, and 2 h time points after oral administration of EAI045, respectively, using microvettes containing heparin. For the 30 min experiments, blood samplings were performed at 5, 10, and 20 min from the tail vein. At the last time point (24 h, 4 h, or 30 min), mice were anesthetized with isoflurane and blood was collected by cardiac puncture. Then, mice were sacrificed by cervical dislocation and brain, liver, spleen, kidneys, lung, small intestine with content (SIWC), and testis were rapidly removed and weighed. Tissues were homogenized on ice in appropriate volumes of 2% (w/v) BSA. Blood samples were centrifuged at 9000× g for 6 min at 4 °C immediately after collection. All samples were stored at −30 °C until analysis.

Kp.SIWC% (SIWC%-to-plasma ratio), fold decrease: 3.6 fold
SIWC%, fold decrease: 2.1 fold
brain-to-plasma ratio, fold increase: 5.2 fold
plasma AUC0–30min, fold increase: 2.1 fold
Compound: O=C(Nc1nccs1)C(c1cc(F)ccc1O)N1Cc2ccccc2C1=O (stereo not shown) [EAI045]
